Test results reported in patent publication US5382586A, “Aryl (or heteroaryl)piperazinylalkylazole derivatives, their preparation and their application as medicaments” (priority 1991, dated 1995).

Columns and labels:
[1] = system: immobility of mice; assay: desperate behaviour test (antidepressant activity); assay type: in vivo, mouse; conditions: i.p.
Method: The desperate behaviour test in mice, described by R. D. Porsolt et al. (Arch. Int. Pharmacodyn. 1977, 229, 327-336), is used.
The animals are placed for 6 minutes in a cylinder containing water, from which they are not able to escape. The period of immobility between minutes 2 and 5 is determined for groups of 10 mice per dosage tested.
The product studied is administered i.p. 1 hour before the test. In this test the immobility of the animals is explained as being produced by their depressed state resulting from being faced with an adverse and insoluble situation in a hostile environment such as water.
In our test imipramine (30 mg/kg; i.p.) was used as reference product.

[2] = system: conditioned avoidance response in male Wistar rats; assay: conditioned avoidance response test (inhibition of the conditioned avoidance response; anxiolytic/tranquillising activity); assay type: in vivo, rat (male Wistar); conditions: rat
How it was run: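 Male Wistar rats (200 g) trained over three days in a shuttle box to jump a barrier within 30 s to avoid foot shock (5 mA); only rats meeting a training score threshold used. Compound or vehicle given orally 45 min before testing; suppression of conditioned avoidance recorded.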

[3] = system: familiarisation process in mice; assay: light box/dark box test: familiarisation process (improvement of cognition); assay type: in vivo, mouse; parameters: Time in the box, dark (D): unit not given here
Text: The influence of this product on the familiarisation process of mice in the light box/dark box test described by J. M. Barnes et al., (Pharmacol. Biochem. Behav., 1990, 35, 955-962) is studied. On the one hand, the effect on learning (the speed of familiarisation) and on the other hand the capacity for blocking contrary effects produced by escopolamine are studied.
The mouse is placed in the light zone of a box divided into two compartments, one brightly illuminated, the light box, and the other with little illumination, the dark box.
1) The number of times the mouse stands up on the hind paws in each compartment during a 5 minute period is counted (see Column 1 of the table below).
2) The activity in each compartment is given by counting the number of crossings through the squares which form the divisions of each compartment (see Column 2 of the table below).
3) The time passed in the dark box during the 5 minute counting period is determined (see Column 3 of the table below).
4) The initial latent period is determined, that is to say the time which elapses after the animal is placed in the light box, at the start of the test, before it enters the dark box (see Column 4 of the table below).
Two treatments with the vehicle are administered to the control animals per day. Two doses of 0.00001 ng/kg p.o. of compound 42 are administered per day to the animals treated with this product. The same operation is repeated daily for 5 days.
The animals learn to remain in the dark box for a longer period and to go into the box more rapidly.
On day six escopolamine (2×0.25 mg/kg, i.p.) is administered.
They recover the learned habit on day seven.

[4] = system: norepinephrine-induced death in rats; assay: norepinephrine antagonism test in rats (antihypertensive activity); assay type: in vivo, rat (male Wister); conditions: D = 40 mg/kg, i.p.; rat; norepinephrine 1.25 mg/kg i.v. after 2 hours
Method: This activity is manifested by the protection of animals before death induced by an intravenous injection of norepinephrine, which produces a hypertensive attack in rats.
Male Wister rats weighing 200 grammes are used in this test. The product to be studied is administered intraperitoneally and 1.25 mg/kg (i.v.) of norepinephrine are administered after 2 hours.
The initial administration dose in these studies is 40 mg/kg (i.p.).

[5] = day 1, 0.00001 ng/kg, p.o., twice per day
[6] = day 2, 0.00001 ng/kg, p.o., twice per day
[7] = day 3, 0.00001 ng/kg, p.o., twice per day
[8] = day 4, 0.00001 ng/kg, p.o., twice per day
[9] = day 5, 0.00001 ng/kg, p.o., twice per day
[10] = day 6, after 2 treatments with escopolamine (0.25 mg/kg, i.p.), Example 42 at 0.00001 ng/kg p.o. twice per day
[11] = day 7, 0.00001 ng/kg, p.o., twice per day

Cc1nc(Cl)c(Cl)n1CCCCN1CCN(c2ncccn2)CC1.O=C(O)CC(O)(CC(=O)O)C(=O)O [Example 42, 4,5-dichloro-2-methyl-1-{4-[4-(2-pyrimidinyl)-1-piperazinyl]-butyl}-1H-imidazole citrate]
Period of immobility ([1]; 1 mg/kg, p < 0.05, control 118 s): 64 s
antidepressant activity (reduction of the period of immobility) ([1]; mice): significantly reduces the period of immobility
Activity % (inhibition of the conditioned avoidance response) ([2]; D = 80 mg/kg, p.o., 45 min before test): 82%
ED50 ([2]; po, 0.75 h): 24.5 mg/kg
Activity within 5 min. period, dark (D) [3, 5]: 82
Activity within 5 min. period, light (L) [3, 5]: 36
Latent period L-D [3, 5]: 11
No. of times standing erect within 5 min period, dark (D) [3, 5]: 79
No. of times standing erect within 5 min period, light (L) [3, 5]: 23
Time in the box, dark (D) [3, 5]: 60
Activity within 5 min. period, dark (D) [3, 6]: 167
Activity within 5 min. period, light (L) [3, 6]: 11
Latent period L-D [3, 6]: 2
No. of times standing erect within 5 min period, dark (D) [3, 6]: 147
No. of times standing erect within 5 min period, light (L) [3, 6]: 10
Time in the box, dark (D) [3, 6]: 80
Activity within 5 min. period, dark (D) [3, 7]: 179
Activity within 5 min. period, light (L) [3, 7]: 10
Latent period L-D [3, 7]: 2
No. of times standing erect within 5 min period, dark (D) [3, 7]: 156
No. of times standing erect within 5 min period, light (L) [3, 7]: 8
Time in the box, dark (D) [3, 7]: 79
Activity within 5 min. period, dark (D) [3, 8]: 183
Activity within 5 min. period, light (L) [3, 8]: 9
Latent period L-D [3, 8]: 1.5
No. of times standing erect within 5 min period, dark (D) [3, 8]: 161
No. of times standing erect within 5 min period, light (L) [3, 8]: 9
Time in the box, dark (D) [3, 8]: 83
Activity within 5 min. period, dark (D) [3, 9]: 176
Activity within 5 min. period, light (L) [3, 9]: 12
Latent period L-D [3, 9]: 1
No. of times standing erect within 5 min period, dark (D) [3, 9]: 151
No. of times standing erect within 5 min period, light (L) [3, 9]: 11
Time in the box, dark (D) [3, 9]: 82
Activity within 5 min. period, dark (D) [3, 10]: 181
Activity within 5 min. period, light (L) [3, 10]: 14
Latent period L-D [3, 10]: 1.5
No. of times standing erect within 5 min period, dark (D) [3, 10]: 172
No. of times standing erect within 5 min period, light (L) [3, 10]: 10
Time in the box, dark (D) [3, 10]: 81
Activity within 5 min. period, dark (D) [3, 11]: 187
Activity within 5 min. period, light (L) [3, 11]: 8
Latent period L-D [3, 11]: 1
No. of times standing erect within 5 min period, dark (D) [3, 11]: 181
No. of times standing erect within 5 min period, light (L) [3, 11]: 8
Time in the box, dark (D) [3, 11]: 83
effect on the effects of escopolamine ([3]; escopolamine 2×0.25 mg/kg, i.p., day six): blocks the effects of escopolamine
cognition-improving activity ([3]; mice): has a cognition-improving activity
effect on the learning process ([3]; mice): improves the learning process
Activity % (norepinephrine antagonistic antihypertensive activity) [4]: 0%
